Results from BindingDB's records for doi:10.1021/jm200004e (University of Louisiana At Monroe, 2011).
*1 amine or outer side, *2 acyl side, *3 side chain or, on linkers, in order; H or OH if unused. Where a SMILES comes first, the peptide text is derived from it. [ ]: non-standard residue; d: D form. X1 = O=C(CCc1cccc2c1oc1c(CCN[*:1])cccc12)[*:2]

Test: Inhibition of CD2 assessed as inhibition of CD2-CD58 protein-protein interaction mediated cell adhesion between CD58 expressing sheep red blood cells and CD2 expressing human Jurkat cells by E-rosettes assay

## CC[C@H](C)[C@@H]1NC(=O)[C@H](Cc2ccc(O)cc2)NC(=O)[C@H](CC(=O)O)NC(=O)CCc2cccc3c2Oc2c(cccc2-3)CCNC(=O)[C@H](CC(=O)O)NC(=O)[C@H](CC(=O)O)NC(=O)[C@H](CCCCN)NC1=O (cyclo(DD[X1]DYIK))
  IC50: 25.7 nM
